These results are taken from paper PMC10648875 (Antimicrobial Agents and Chemotherapy, 2023).

Each structure is given as a SMILES string. In brackets after ≈: the same amount, converted by molar mass. Read-outs that look alike come from different tables or passages of the source.

The subject of data set [1] is Klebsiella pneumoniae ATCC 700603 (KPM2881), SHV-18. Further details: method as in earlier work. To be noted: quality control range; ref CLSI; cited from earlier work.
For data set [2], the system named is carbapenem-resistant Enterobacterales (subset of 507 isolates). Kind of data set: organism not typed. Format: cell-based. To be noted: xeruborbactam and vaborbactam fixed 8 mg/L, all other BLIs 4 mg/L; for MIC50: read-out: MIC50; for MIC90: read-out: MIC90.
In data set [3] the test system is PAM4910 producing VEB-2. Kind of data set: MIC, engineered isogenic strain. Type of data set: cell-based, P. aeruginosa. To be noted: VEB-2, class A; BLIs at fixed 4 µg/mL.
Data set [4] relates to PAM4800 producing GES-19. Kind of data set: MIC, engineered isogenic strain. Format: cell-based, P. aeruginosa. The note with it: GES-19, class A; BLIs at fixed 4 µg/mL.
Data set [5] relates to Escherichia coli NCTC 13353 (ECM7514), CTX-M-15. Also noted: method as in earlier work. The note with it: quality control range; ref CLSI; cited from earlier work.
In data set [6] the test system is PAM4840 producing OXY-6–2. Kind of data set: MIC, engineered isogenic strain. Type of data set: cell-based, P. aeruginosa. The note with it: OXY-6–2, class A; BLIs at fixed 4 µg/mL.
Data set [7] concerns NDM-9 (lysate of NDM-9-producing strain). The note with it: read-out: IC50 of inhibition of imipenem hydrolysis in cell lysates; cited from earlier work.
Data set [8] has as its target KPC-2 (Klebsiella pneumoniae, UniProt Q9F663). Kind of data set: Ki app of β-lactamase inhibition, purified enzyme. The note with it: 10-minute preincubation; nitrocefin substrate. Format: biochemical. The protocol:
(§1) The majority of purified β-lactamase enzymes used in the study were either expressed and purified internally ([35]) or obtained from Emerald Biostructures (Bainbridge Island, WA, USA). L1 enzyme was purified as described in reference ([36]).
(§2) Enzymes were mixed with BLIs at concentrations varying from 160 to 0.0027 µM in 50-mM Na-phosphate pH7.0, 0.1-mg/mL bovide serum albumin (BSA) (buffer A; 20-µM ZnCl2 was also added for all metalloenzymes) and incubated for 10 minutes at 37°C. Nitrocefin (50 µM) (10 µM for SHV-12) or 100 µM of imipenem (prewarmed at 37°C for 10 minutes) was added, and substrate cleavage profiles were recorded at 37°C at 490 nm every 10 seconds for 10 minutes or at 294 nm every 30 seconds for 1 hour for nitrocefin and imipenem, respectively. […] Ki app values (Ki for metalloenzymes) were calculated by the method of Waley ([37]).

The conditions of data set [9]: cited from earlier work.
Data set [10] has as its target IMP-1 (Serratia marcescens, UniProt P52699). Kind of data set: Ki of metallo-β-lactamase inhibition, purified enzyme. To be noted: 10-minute preincubation; imipenem substrate; read-out: Ki. Type of data set: biochemical. The method, then:
as §1, §2

In data set [11] the target is IMP-26 (Pseudomonas aeruginosa, UniProt D0V558). The data set is described as above. Format: biochemical. The note with it: 10-minute preincubation; nitrocefin substrate. The method, then:
as §1, §2

Data set [12] deals with SHV-12 (Klebsiella pneumoniae, UniProt P0AD64, E235K/G234S/L31Q). Kind of data set: Ki app of β-lactamase inhibition, purified enzyme. Format: biochemical. To be noted: 10-minute preincubation; nitrocefin substrate; read-out: Ki app. The protocol:
as §1, §2

On the set-up of data set [13]: method as in PMID 31871094. To be noted: cited from earlier work.
Data set [14] deals with K. pneumoniae ATCC BAA-2814 (KP1074), KPC-3. Further details: method as in earlier work. To be noted: quality control range; ref CLSI; cited from earlier work.
Data set [15] concerns K. pneumoniae ATCC BAA-1705 (KPM1123), KPC-2. Also noted: method as in earlier work. To be noted: quality control range; ref CLSI; cited from earlier work.

Chain of IMP-26 (D0V558 entry or part of it): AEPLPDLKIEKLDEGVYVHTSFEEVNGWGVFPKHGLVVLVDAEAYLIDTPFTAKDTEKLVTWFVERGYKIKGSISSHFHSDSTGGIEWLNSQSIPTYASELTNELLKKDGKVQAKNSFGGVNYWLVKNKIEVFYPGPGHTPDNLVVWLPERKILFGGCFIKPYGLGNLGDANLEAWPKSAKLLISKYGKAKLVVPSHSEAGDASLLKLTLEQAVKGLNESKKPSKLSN
Chain of IMP-1 (P52699 19-246 limits assumed): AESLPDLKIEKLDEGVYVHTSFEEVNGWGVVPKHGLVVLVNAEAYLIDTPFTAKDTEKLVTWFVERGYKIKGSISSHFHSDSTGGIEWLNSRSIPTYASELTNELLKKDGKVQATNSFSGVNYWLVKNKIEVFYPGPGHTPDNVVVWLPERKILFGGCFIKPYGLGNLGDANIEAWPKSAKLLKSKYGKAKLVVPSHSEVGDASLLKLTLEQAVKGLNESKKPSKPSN
Chain of KPC-2 (Q9F663 25-293 limits assumed): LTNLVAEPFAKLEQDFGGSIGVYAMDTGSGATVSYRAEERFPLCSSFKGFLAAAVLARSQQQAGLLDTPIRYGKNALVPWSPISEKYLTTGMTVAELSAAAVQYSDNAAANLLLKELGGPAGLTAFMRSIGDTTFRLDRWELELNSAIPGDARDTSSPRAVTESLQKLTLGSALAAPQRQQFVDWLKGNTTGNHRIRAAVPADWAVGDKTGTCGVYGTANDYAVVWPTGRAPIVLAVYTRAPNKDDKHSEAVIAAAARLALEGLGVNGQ
Chain of SHV-12 (P0AD64 22-286 L31Q/G234S/E235K): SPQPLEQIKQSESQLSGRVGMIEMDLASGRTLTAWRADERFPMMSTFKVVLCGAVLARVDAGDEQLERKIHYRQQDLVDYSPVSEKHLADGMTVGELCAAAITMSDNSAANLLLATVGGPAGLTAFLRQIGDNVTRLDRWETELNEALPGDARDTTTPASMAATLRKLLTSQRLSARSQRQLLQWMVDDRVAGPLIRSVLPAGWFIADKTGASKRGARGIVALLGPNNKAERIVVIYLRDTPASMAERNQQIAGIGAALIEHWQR

In general, MIC50 refers to an inhibitory concentration at the 50% level, which refers to growth in some studies and to a panel of isolates in others. The MIC90 is an inhibitory concentration at the 90% level, which refers to growth in some studies and to a panel of isolates in others. Usually MIC stands for the lowest concentration that inhibits growth of the organism. `CO/N=C(\C(=O)N[C@@H]1C(=O)N2C(C(=O)[O-])=C(C[N+]3(C)CCCC3)CS[C@H]12)c1csc(N)n1` [FEP, cefepime]: the entries for the “CLSI approved MIC range” value in data set [1] and in data set [5] were 0.5 to 2 µg/mL and > 64 µg/mL, respectively. Also, the MIC50 in [2] (CRE (N = 507)), in [2] (KPC (N = 193)), in data set [2] (MBL (N = 168)), in data set [2] (Non-CP CRE (N = 50)) and in data set [2] (OXA-48-like (N = 96)) was > 64 µg/mL each time. In addition, the MIC90 in data set [2] (CRE (N = 507)), in data set [2] (KPC (N = 193)), in data set [2] (MBL (N = 168)), in data set [2] (Non-CP CRE (N = 50)) and in [2] (OXA-48-like (N = 96)) was > 64 µg/mL each time. For the same molecule, the values for the minimal inhibitory concentration (MIC) in data set [3], in data set [4] and in data set [6] were > 64 µg/mL, 64 µg/mL (≈ 133 µM) and 8 µg/mL (≈ 16.6 µM), respectively.

As usually defined, the IC50 is the concentration that gives 50% inhibition. Consider `O=C(O)c1c(F)ccc2c1OB(O)[C@@H]1C[C@H]21` [Xeruborbactam, xeruborbactam], for which the IC50 in data set [7] was 1200 ± 100 nM. In data set [8], the Ki turned out to be 1.4 ± 0.2 nM. In addition, the steady-state plasma concentration in data set [9] (phase I subjects, 500-mg loading dose then 250 mg every 8 hours by 3-hour infusion) is ~ 7 µg/mL. For the same molecule, the safety and tolerability result in [9] (phase I, intravenous or oral (prodrug), doses of 1,000 mg/day or less) is “safe and well tolerated”.

For the molecule `NCCN[C@H]1CC[C@H](CC(=O)N[C@H]2Cc3cccc(C(=O)O)c3OB2O)CC1` [Taniborbactam, taniborbactam], the Ki is > 20000 nM in data set [10], > 20000 nM in data set [11] and 0.15 ± 0.03 nM in [12]. Further, the “concentration at which direct antibacterial activity is lacking” value in data set [13] was > 512 µg/mL.

Regarding `C[C@@H](O)[C@H]1C(=O)N2C(C(=O)O)=C(S[C@@H]3CN[C@H](C(=O)N(C)C)C3)[C@H](C)[C@H]12` [MEM, meropenem], the “CLSI approved MIC range” value in data set [14] is 32 to 256 µg/mL; in data set [15], 8.0 to 64 µg/mL. The MIC50 in [2] (CRE (N = 507)) stood at 0.5 µg/mL; in [2] (KPC (N = 193)) it was 16 µg/mL; in [2] (MBL (N = 168)), 64 µg/mL; in data set [2] (Non-CP CRE (N = 50)), 4 µg/mL; in [2] (OXA-48-like (N = 96)), 16 µg/mL. Besides, the MIC90 was > 64 µg/mL in data set [2] (CRE (N = 507)); > 64 µg/mL in data set [2] (KPC (N = 193)); > 64 µg/mL in [2] (MBL (N = 168)); 16 µg/mL in data set [2] (Non-CP CRE (N = 50)); 64 µg/mL in data set [2] (OXA-48-like (N = 96)). Besides, the MIC was found to be 0.25 µg/mL (≈ 0.652 µM) in data set [3], 1 µg/mL (≈ 2.61 µM) in data set [4] and 0.25 µg/mL (≈ 0.652 µM) in [6].
